According to patent US20230084899A1, “COMBINATION OF AN AHR-INHIBITOR AND AN PD1-INHIBITOR ANTIBODY AND ITS USE IN THE TREATMENT OF CANCER” (Bayer Aktiengesellschaft, priority 2019, published 2023):
“Also recorded” adds a separate entry of the source.

Key:
tumor cell proliferation = assay: Anti-proliferative effect of the combination (tumor cell proliferation); format: cell-based
[1] = test system: human T cell/DC co-cultures; assay: Mixed lymphocyte reaction: IL-2 in supernatants of matured DC / T cell co-culture; format: cell-based
Experimental: Whole blood samples from healthy donors were collected and PBMCs were isolated using density gradient centrifugation for 15 min at 800×g at room temperature with Biocoll separation solution (density […]; Biochrom, #L6115). The supernatants were discarded and the PBMCs were poured into 50 ml tubes, washed with PBS without Ca^+/Mg^+, counted and resuspended in MACS separation buffer (Miltenyi Biotec). The monocytes were isolated from PBMCs using the Monocyte Isolation Kit II (Miltenyi Biotec, Cat #130-091-153) according to manufacturer's instructions. On the day of co-culture, T cells were isolated from PBMC preparations obtained from whole blood of different donors using the Pan T Cell Isolation Kit (Auto MACS Pro, Cat #130-096-535).
Monocytes were differentiated into monocyte-derived dendritic cells (moDCs) using 100 ng/ml GM-CSF (R&D Systems, Cat #215-GM) and 100 ng/ml rhIL4 (R&D Systems, Cat #204-IL) for 6 days at 37° C., 5% CO2. To produce mature DCs, moDCs were further matured for 24 h with IFNγ (R&D Systems, Cat #285-IF) and lipopolysaccharide (LPS) from Escherichia coli O127: B8 (Sigma, Cat #L4516).
For the co-culture assay, matured DCs and T cells from different donors were used. The cells were seeded in 96-well plates (Costar, Cat #3585) at 1×10^4 cells/well for matured DCs and 5×10^4 cells/well for T cells. A serial dilution of component A (3× dilution steps) in combination with anti-programmed cell death 1 antibody (as component B: aPD-1; 1 μg/ml pembrolizumab or 3 μg/ml nivolumab) or respective concentrations of hIgG4 (isotype control TPP10747, PPB11084) was added and the cells were incubated for 3 days at 37° C., 5% CO2.
IL-2 cytokine levels were measured in aliquots of supernatants using the Human IL-2 Tissue Culture kit (Meso Scale Discovery, Cat #K151AHB-4).

| Structure (SMILES) | inhibiting tumor cell proliferation (tumor cell proliferation; in combination with nivolumab) | anti-proliferative effect / inhibiting tumor cell proliferation (tumor cell proliferation; in combination with pembrolizumab) | T cell activity (observed by IL-2 production) ([1]; alone and in combination with PD1 antibodies) | IL-2 production from T cells ([1]; component A alone (component A+hIgG4 isotype control), serial dilution, 3 days co-culture) | IL-2 levels, combination compared to aPD-1 or component A alone ([1]; component A serial dilution + 1 μg/ml pembrolizumab, 3 days co-culture (FIG. 1)) | IL-2 levels, combination compared to aPD-1 or component A alone ([1]; component A serial dilution + 3 μg/ml nivolumab, 3 days co-culture (FIG. 2)) |
| --- | --- | --- | --- | --- | --- | --- |
| C[C@@H](CO)NC(=O)c1cc(-c2ccc(Cl)cc2)nn(-c2cnn(C)c2)c1=O [6-(4-Chlorophenyl)-N-[(2S)-1-hydroxypropan-2-yl]-2-(1-methyl-1H-pyrazol-4-yl)-3-oxo-2,3-dihydropyridazine-4-carboxamide] | synergistic effects | very strong synergy; also recorded: synergistic effects |  |  |  |  |
| C[C@@H](CO)NC(=O)c1cc(-c2ccc(Cl)cc2)nn(-c2cnn(C)c2)c1=O [component A, 6-(4-Chlorophenyl)-N-[(2S)-1-hydroxypropan-2-yl]-2-(1-methyl-1H-pyrazol-4-yl)-3-oxo-2,3-dihydropyridazine-4-carboxamide] |  |  | enhances T cell activity | dose-dependent response | higher IL-2 levels | higher IL-2 levels |
